Assay: Injectability test: force to extrude from 1 cc syringe through 25 G ½ inch needle at 2 cc/min
Assay type: physicochemical
Details: 25 G ½ inch long needle
From the text: A major disadvantage of the polymer depots is that they require large diameter needles for injection or implantation due to the physical size of the microcapsules/microspheres and/or the high viscosity of the polymer gel. For example, 14- or 16-gauge (G) needles are required for implantation of Zoladex™ and 18 G or 20 G needles for injection of Eligard™. However, in common medical practice, needles of size greater than 21 G are generally not used for injection because they cause significant pain and psychological trauma for patients. […] The injectability or ease with which the end user can self-inject through such a system will be key to such a drug's user compliance and therapeutic efficacy. For discussion purposes herein, the injectability of a syringe-administered depot is quantitatively defined as meeting the “Acceptable Injectability Criterion” if it requires an applied force of no more than 10 pounds to be extruded from a 1 cc syringe through a 25 G ½ inch long needle at rate of 2 cc/min.
The phrase “Acceptable Injectability Criterion” as used herein includes quantitatively defining a formulation that requires an applied force of no more than 10 pounds to extrude the formulation from a 1 cc syringe through a 25 G ½ inch long needle at rate of 2 cc/min. […]
F-43 was a translucent one-phase gel. The injectability of F-43 was determined against the Acceptable Injectability Criterion. […]

OCC(O)CO [glycerin]
maximum injection force: approximately 8 pounds

Source: patent US9517202B2, “Phospholipid depot” (LATITUDE PHARMACEUTICALS INC., priority 2009, dated 2016)
